This assay deals with T1, mitochondrial diazepam binding inhibitor receptor (MDR) (Rattus norvegicus, UniProt P16257).
T1 construct: Crude mitochondria fractions prepared from rat cerebral cortex were used as a receptor sample; from tissue; host or cells: rat cerebral cortex, crude mitochondria fraction
In words: MDR receptor binding assay ([3H]PK11195 displacement, crude mitochondria fractions from rat cerebral cortex). Particulars: 50% inhibition of [3H]PK11195 (2 nM) binding; rat cerebral cortex crude mitochondria fraction, 4° C., 90 minutes. The protocol: Experiment [MDR Receptor Binding Assay]
Crude mitochondria fractions prepared from rat cerebral cortex were used as a receptor sample, and [^3H]PK11195 was used as a [^3H]-labeled ligand.
A binding assay using the [^3H]-labeled ligand was carried out according to the following method as described in Journal of Pharmacology and Experimental Therapeutics, 262, 971(1992).
Preparation of Receptor Sample: Rat cerebral cortex was homogenized using a Teflon-coated homogenizer in a 10 mM HEPES buffer (pH 7.4) containing 0.32 M sucrose in ten volumes of the wet weight. The homogenate was centrifuged at 900×g for 10 minutes, and the resulting supernatant was centrifuged at 9,000×g for 10 minutes. The precipitate was suspended in a HEPES buffer to give a protein concentration of 1 mg/ml, and centrifuged at 12,000×g for 10 minutes. The resulting precipitate was suspended in a 50 mM HEPES buffer (pH 7.4) to give a crude mitochondria fraction.
MDR Binding Assay:. Mitochondria sample (1.0 mg protein/ml), [^3H]PK11195 (2 nM) and the test drug were reacted at 4° C. for 90 minutes.
After completion of the reaction, the reaction mixture was filtered with suction through a glass filter (GF/B) treated with 0.3% polyethyleneimine, and the radioactivity on the filter was measured by a liquid scintillation spectrometer.
The binding at the reaction in the presence of 10 μM PK11195 was defined as non-specific binding of [^3H]PK11195, and the difference between total binding and non-specific binding was defined as specific binding.

Eight compounds from patent US6380384B1, “1,2-dihydro-2-oxoquinoline derivatives” (Taisho Pharmaceutical Co., Ltd., priority 1997, dated 2002) can be followed below.

T1 sequence (P16257 whole entry): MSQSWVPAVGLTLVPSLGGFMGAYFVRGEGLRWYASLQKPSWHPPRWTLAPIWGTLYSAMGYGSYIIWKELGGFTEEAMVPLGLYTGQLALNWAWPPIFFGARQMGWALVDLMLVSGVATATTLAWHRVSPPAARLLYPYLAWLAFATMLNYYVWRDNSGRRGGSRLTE

The term IC50 denotes the point on the concentration scale where inhibition reaches its midpoint. As to `CCCCCCN(CCCCCC)C(=O)c1cc2ccccc2n(Cc2cccnc2)c1=O` [Compound 19, N,N-dihexyl-1-(3-picolyl)-1,2-dihydro-2-oxoquinoline-3-carboxamide], the 50% inhibitory concentration (IC50) is 0.368 nM.

The compound `CCCCCCN(CCCCCC)C(=O)c1cc2ccccc2n(Cc2ccccn2)c1=O` [Compound 18] yielded a 50% inhibitory concentration (IC50) of 0.404 nM. `CCCCCCN(CCCCCC)C(=O)c1cc2ccccc2n(CCc2ccccc2)c1=O` [Compound 21] returned a half-inhibitory concentration (IC50) of 6.58 nM. This IC50 lies about 16-fold higher than the previous one. The compound `CCCN(CCC)C(=O)c1cc2ccccc2n(Cc2ccccc2)c1=O` [Compound 04] yielded a half-maximal inhibitory concentration (IC50) of 1.71 nM. `CCCCCCN(CCCCCC)C(=O)c1cc2ccc(Cl)cc2n(Cc2ccccc2)c1=O` [Compound 23] displayed an IC50 of 0.132 nM. Compared with the last compound, the IC50 is about 13-fold lower. Compound `CCCCCCN(CCCCCC)C(=O)c1cc2ccccc2n(Cc2ccncc2)c1=O` [Compound 20] gave an IC50 of 0.192 nM. `CCCCCCCCCCN(CCCCCCCCCC)C(=O)c1cc2ccccc2n(Cc2ccccc2)c1=O` [Compound 06] had an IC50 of 53.4 nM. Then `CCCCCCN(CCCCCC)C(=O)c1cc2ccccc2n(Cc2ccccc2)c1=O` [Compound 05], with 0.159 nM.
